In US9073858B2, “Methods of targeted drug development” (priority 2010, dated 2015):
Read-outs that look alike come from different tables or passages of the source.

Key:
[1] = test system: epithelial carcinoma A431 cell line; assay: MTT Cell Proliferation Assay, A431 cell line; type: cell-based; conditions: for MTT (10 Point follow-up) ratio / MTT-72 h A431/MDBK (ratio): value in brackets; for MTT (10 Point follow-up) ratio: numerically MDBK over A431; for MTT-72 h A431/MDBK (ratio): numerically MDBK value over A431 value
Source text: (§1) The following example describes the MTT Cell Proliferation Assay.
(§2) The MTT Cell Proliferation Assay is a colorimetric assay system that measures the reduction of the tetrazolium salt MTT (3-(4,5-dimethylthiazol-2-yl)-2,5-diphenyltetrazolium bromide) into insoluble formazan crystals, produced by the mitochondria of viable cells. […] The color can then be quantified by spectrophotometric means. Among the applications for the method are drug sensitivity, cytotoxicity, response to growth factors, and cell activation. The reduction of tetrazolium salts is now recognized as a safe, accurate alternative to radiometric testing.
(§3) Two replicates on each cell plate and 2 duplicate plates gave 4 individual replicates of each concentration, in each cell line. Concentrations were diluted in 100% DMSO from 25 mM stocks.
(§4) Twelve 96 well plates of each cell line were plated. Plating was done by dislodging cells as in passage protocol, counting on a hemocytometer, re-suspending in standard growth media, and plating using a multichannel pippetor.
(§5) 16 μl of 25 mM stock+34 μl DMSO=8 mM starting concentrations, and serial diluted as with test compounds in same plate. […] Two replicates of each concentrations was run on each cell plate. All compound addition and cell treatments were done using aseptic technique under a laminar flow aseptic hood.
(§6) Control: 0.5% DMSO in treatment media was used as the control.
(§7) MTT dye (Thiazolyl Blue Tetrazolium Bromide, Sigma cat # M5655) stock was prepared in bulk and stored at 4° C. for use: 5 mgs/ml sterile PDS, shielded from light. 4 ul of this stock per 100 uls treatment media per well was used.
(§8) Plates were incubated overnight prior to treatment, with treatment day=Day 0. Compound treatments were prepared prior to washing cells to minimize time cells were dry at room temperature after final aspiration. Compounds were diluted in 100% DMSO in 96 well polypropylene plates:40 μl 25 mM stock+10 μl DMSO=20 mM; 20 μl of 20 mM+30 μl DMSO=8 mM; 20 μl of 8 mM+30 μl DMSO=3.2 mM; 20 μl of 3.2 mM+30 μl DMSO=1.3 mM; 20 μl of 1.3 mM+30 μl DMSO=0.51 mM.
(§9) 5.0 μl/ml were added to treatment media, in sterile, 2.2 ml deep well plates=0.5% dmso final. Ten μl of each dmso concentration was added to 2.0 ml of treatment media and then mixed using a 1200 μl multichannel pipettor. Cell plates were treated from the deep well plates. Treatment media was standard growth media containing 0.5% FBS and standard additions. This reduced FBS concentration allowed for a slower growth rate in cells.
(§10) Media was aspirated from cell plates, and washed with 200 μl/well sterile PBS. Aspirated PBS wash, and cell plates were treated with 200 μl of compound/treatment media per well, and incubated at 37° C., 5% CO2 for 3 days.
(§11) Prior to harvesting, visual observations were made under an inverted microscope. Plates were harvested by: aspirating the growth media; adding back MTT dye/100 μl treatment media; and incubating plates at 37° C. for 1 hour. MTT dye was aspirated. 100 μl/well dmso was added, and then shaken on a Bellco plate shaker for 5 minutes, at 4.5 setting.
(§12) Plates were read in a Tecan Sunrize UV plate reader, at 560 nm. Settings: Read mode, Outside Normal 2 sec; Shake settle time 3 sec. Data is reported as % inhibition, calculated for individual plates using control values from that plate.

[2] = test system: MDBK line; assay: MTT Cell Proliferation Assay, MDBK line; type: cell-based, bovine
Source text: as §1, §2, §3, §4, §5, §6, §7, §8, §9, §10, §11, §12

[3] = target: T1, EGFR (Homo sapiens, UniProt P00533); assay: EGFR in-cell Western (ICW) screening protocol; type: cell-based; set-up: unit not given here; conditions: for ICW Screen: initial screen
T1 construct: endogenous in cells; host or cells: A431 cells (ATCC CRL-1555)
T1 sequence (P00533 25-1210): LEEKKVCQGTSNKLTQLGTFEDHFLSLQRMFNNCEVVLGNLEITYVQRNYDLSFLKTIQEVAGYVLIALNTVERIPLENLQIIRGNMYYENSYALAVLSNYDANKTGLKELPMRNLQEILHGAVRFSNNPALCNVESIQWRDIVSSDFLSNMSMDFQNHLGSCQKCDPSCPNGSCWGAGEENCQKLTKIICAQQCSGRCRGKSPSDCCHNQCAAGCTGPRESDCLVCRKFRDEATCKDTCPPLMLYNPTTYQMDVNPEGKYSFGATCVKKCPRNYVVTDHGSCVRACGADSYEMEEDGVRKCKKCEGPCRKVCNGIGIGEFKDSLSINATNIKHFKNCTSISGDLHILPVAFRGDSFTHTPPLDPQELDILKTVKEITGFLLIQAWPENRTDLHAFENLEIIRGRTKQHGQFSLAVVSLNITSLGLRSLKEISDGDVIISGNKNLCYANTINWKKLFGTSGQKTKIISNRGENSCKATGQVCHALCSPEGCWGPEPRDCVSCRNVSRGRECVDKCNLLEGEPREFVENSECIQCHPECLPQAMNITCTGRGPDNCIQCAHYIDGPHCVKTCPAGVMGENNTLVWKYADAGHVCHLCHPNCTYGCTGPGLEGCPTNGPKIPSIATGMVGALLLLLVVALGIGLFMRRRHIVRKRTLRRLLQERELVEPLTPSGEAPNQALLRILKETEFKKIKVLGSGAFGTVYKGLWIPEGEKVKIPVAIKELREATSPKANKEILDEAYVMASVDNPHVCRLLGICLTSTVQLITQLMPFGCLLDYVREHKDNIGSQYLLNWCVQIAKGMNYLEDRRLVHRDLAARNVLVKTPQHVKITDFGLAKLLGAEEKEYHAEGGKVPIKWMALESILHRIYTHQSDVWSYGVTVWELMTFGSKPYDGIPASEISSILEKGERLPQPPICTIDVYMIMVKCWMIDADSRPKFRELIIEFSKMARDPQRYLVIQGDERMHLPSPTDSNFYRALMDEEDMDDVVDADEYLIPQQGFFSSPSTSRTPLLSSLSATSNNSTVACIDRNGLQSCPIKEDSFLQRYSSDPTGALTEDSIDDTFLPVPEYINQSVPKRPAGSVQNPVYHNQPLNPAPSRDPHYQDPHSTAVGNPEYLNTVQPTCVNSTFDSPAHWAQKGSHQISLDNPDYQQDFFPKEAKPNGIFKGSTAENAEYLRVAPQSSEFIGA
Description: The following example describes general EGFR in-cell Western (ICW) screening protocol.
Two cell plates were prepared for each compound plate.
Serum Starvation: The cells were serum starved prior to compound addition. […] The cell plates were incubated at 37° C./5% CO2 for 2 hours.
Prepared compound plates were stored at RT prior to use and at 4° C. long term.
Compound Dilution Plate Preparation: 250 μl of DMEM supplemented with 1 mg/ml BSA (Sigma A3059-10G) was added to the appropriate wells of a 96 well plate to prepare the compound dilution plates. Using a multichannel pipettor, 1.25 μl of compound from the compound plate was transferred into the compound dilution plate.
Compound Addition: The starve media was removed from the cell plates by aspiration. Using a multichannel pipettor, the compound dilution plates were mixed by pipetting up and down three times. 50 μl of mixed, diluted compound was added to each of two rows/columns on each of two cell plates. The cell plates with compound were incubated at 37° C./5% CO2 for 4 hours.
50 μl of 20 or 0 ng/ml EGF was added to the appropriate wells without the removal of compound. The compound and EGF were mixed by pipetting up and down three times.
The plates were incubated at RT for 20 min without shaking. The Fixation Solution was removed by aspiration and the plates washed four times with 200 μl each of Triton Wash Solution (1×PBS, Sigma P3813-10PK, and 0.1% Triton X-100, T8787-50ML) for 5 min with gentle shaking.
The block was removed by aspiration and 50 μl of diluted primary Ab mix was added. The plates were incubated at 4° C. overnight with gentle shaking. The plates were washed five times with 200 μl of PBST (1×PBS, Sigma P3813-10PK, and 0.1% Tween-20, Sigma P9416-50ML) for 5 min each with shaking. 50 μl of diluted secondary Ab mix was added and the plates incubated at RT for 1 h with shaking. The plates were washed 5× with 200 μl of PBST for 5 min each with shaking. One final wash with 200 μl of PBS (Sigma P3813-10PK) for 5 min with shaking was performed prior to scanning.
In some screening assays, the dilution of the secondary Ab conjugates was 1/800 rather than 1/1200.
Plate Scanning: The plates were scanned on an Odyssey Infrared Imaging System from LI-COR Biosciences. The focus offset was set at 3.5 mm and the scanning intensity set at 3 for the 700 channel and 7 for the 800 channel.
Data Analysis: The % of Maximum and % Inhibition values were calculated as follows. 700 Channel=signal for total EGFR (used to control for variation in cell number). 800 Channel=signal for phosphorylated EGFR. 800−EGF=basal level EGFR phosporylation+non-specific signal (no compound). 800+EGF=800−EGF+EGF dependent EGFR receptor phosphorylation (no compound). 700/800com=700 or 800 channel signals with compound. % Maximum={[(800com/700com)−(800−EGF/700−EGF)]/[(800+EGF/700+EGF)−(800−EGF/700−EGF)]}×100%. % Inhibition=100%−(% Maximum).

[4] = Homo sapiens, A-431, 10 point follow-up, first value of pair, read-out: MTT (10 Point follow-up) A431
[5] = Homo sapiens, A-431, 72 h, 72 h, first value of A431/MDBK pair, read-out: MTT-72 h A431
[6] = Bos taurus, MDBK, 10 point follow-up, second value of pair, read-out: MTT (10 Point follow-up) MDBK
[7] = Bos taurus, MDBK, 72 h, second value of A431/MDBK pair, read-out: MTT-72 h MDBK

| SMILES | IC50 [1, 4] | IC50 [1, 5] | ICW Screen [3] | ICW Re-Test [3] | IC50 ([1]; 72 h, first value of A431/MDBK pair, read-out: MTT-72 h A431) | MTT (10 Point follow-up) ratio ([1]; 10 point follow-up) | MTT-72 h A431/MDBK (ratio) ([1]; 72 h) | IC50 [2, 6] | IC50 [2, 7] | IC50 ([2]; 72 h, second value of A431/MDBK pair, read-out: MTT-72 h MDBK) | MTT (10 Point follow-up) % Max ([1]; 10 point follow-up, maximal effect) |
| --- | --- | --- | --- | --- | --- | --- | --- | --- | --- | --- | --- |
| CC(C)Oc1ccc(C(Nc2ccccn2)c2ccc3cccnc3c2O)cc1 (stereo not drawn) [compound 10068] |  | 5720 nM | 29.92 |  |  |  | 0.91 |  | 5.19 µM |  |  |
| Oc1c(C(Nc2ccccn2)c2ccccc2Br)cc(Cl)c2cccnc12 (stereo not drawn) [compound 10074] | 1380 nM |  | 6.951 |  |  | 1.16 |  | 1.6 µM |  |  |  |
| COc1cc(C(Nc2ccccn2)c2cc(Cl)c3cccnc3c2O)cc(I)c1O (stereo not drawn) [compound 10086] |  | 5960 nM | 53.89 | 25.94 |  |  | 0.77 |  | 4.61 µM |  |  |
| Oc1c(C(Nc2ccccn2)c2cccc(F)c2)cc(Cl)c2cccnc12 (stereo not drawn) [compound 10090] | 1760 nM | 5280 nM | 21.53 |  |  | 1.48 | 1.06 | 2.6 µM | 5.62 µM |  |  |
| Oc1c(C(Nc2ccccn2)c2cccc(Cl)c2)cc(Cl)c2cccnc12 (stereo not drawn) [compound 10097] | 1250 nM | 6230 nM | 28.02 |  |  | 1.66 | 0.98 | 2.07 µM | 6.09 µM |  |  |
| Oc1c(C(Nc2ccccn2)c2cccc(Br)c2)cc(Cl)c2cccnc12 (stereo not drawn) [compound 10100] | 1060 nM |  | 18.12 |  |  | 1.62 |  | 1.72 µM |  |  |  |
| CCOc1ccc(C(Nc2cc(C)ccn2)c2ccc3cccnc3c2O)cc1OCC (stereo not drawn) [compound 10143] |  | 4740 nM | 45.61 | 27.18 |  |  | 0.92 |  | 4.33 µM |  |  |

More lines, main results first:

| IC50 [1, 4] | IC50 [1, 5] | ICW Screen [3] | ICW Re-Test [3] | IC50 ([1]; 72 h, first value of A431/MDBK pair, read-out: MTT-72 h A431) | SMILES | MTT (10 Point follow-up) ratio ([1]; 10 point follow-up) | MTT-72 h A431/MDBK (ratio) ([1]; 72 h) | IC50 [2, 6] | IC50 [2, 7] | IC50 ([2]; 72 h, second value of A431/MDBK pair, read-out: MTT-72 h MDBK) | MTT (10 Point follow-up) % Max ([1]; 10 point follow-up, maximal effect) |
| --- | --- | --- | --- | --- | --- | --- | --- | --- | --- | --- | --- |
| 1380 nM | 2150 nM | 12.5 |  |  | Cc1ccnc(NC(c2ccc3cccnc3c2O)c2c(O)cccc2Cl)c1 (stereo not drawn) [compound 10067] | 2.14 | 1.60 | 2.95 µM | 3.45 µM |  |  |
|  | 7890 nM | 40.85 | 43.19 |  | CCOc1cc(C(Nc2cc(C)ccn2)c2ccc3ccc(C)nc3c2O)ccc1O (stereo not drawn) [compound 10071] |  | 1.37 |  | 10.8 µM |  |  |
| 4700 nM | 5230 nM | 62.13 | 41.13 |  | COc1cc(C(Nc2ccccn2)c2cc(Cl)c3cccnc3c2O)cc(Br)c1O (stereo not drawn) [compound 10087] | 1.18 | 1.11 | 5.55 µM | 5.79 µM |  |  |
|  | 31400 nM | 25.13 |  |  | O=C(O)c1ccc(C(Nc2ccccn2)c2cc(Cl)c3cccnc3c2O)cc1 (stereo not drawn) [compound 10093] |  | 0.68 |  | 21.5 µM |  |  |
| 2880 nM |  | 44.01 | 7.53 | 5770 nM | CCOc1ccc(C(Nc2ccccn2)c2cc(Cl)c3cccnc3c2O)cc1 (stereo not drawn) [compound 10101] | 0.90 | 1.66 | 2.59 µM |  | 9.52 µM |  |
| 605 nM | 1290 nM | 3.88 |  |  | Oc1c(C(Nc2ccccn2)c2c(F)cccc2Cl)cc(Cl)c2cccnc12 (stereo not drawn) [compound 10105] | 1.40 | 1.12 | 0.85 µM | 1.45 µM |  | 77% |
| 1130 nM |  | 15.91 |  |  | COc1ccc(Br)cc1C(Nc1ccccn1)c1cc(Cl)c2cccnc2c1O (stereo not drawn) [compound 10108] | 1.53 |  | 1.73 µM |  |  |  |
| 534 nM |  | 12.75 |  |  | Oc1c(C(Nc2ccccn2)c2ccc(Cl)c(Cl)c2)ccc2cccnc12 (stereo not drawn) [compound 10109] | 2.58 |  | 1.38 µM |  |  |  |
